We go through one compound from paper PMC9786103, “Potent and Selective Inhibition of CYP1A2 Enzyme by Obtusifolin and Its Chemopreventive Effects” (Pharmaceutics, 2022).

In general, IC50 refers to the concentration at which inhibition is half-maximal. As a reminder, the Ki is the equilibrium dissociation constant of an inhibitor or competing ligand from its target.

Common to all, as to format: biochemical
In one series the test system is other P450s. As to the kind of experiment: Inhibition of other P450s in human liver microsomes (summary). The following applies: HLMs, P450s other than CYP1A2; read-out: IC50 against other P450s.
The next series deals with T1, CYP2C9 (Homo sapiens, UniProt P11712).
T1 construct: Mixtures of pooled HLM, P450 substrates, and obtusifolin; tissue XenoTech XTreme 200; host or cells: pooled human liver microsomes
As to the kind of experiment: Tolbutamide 4-hydroxylation in human liver microsomes. Particulars: HLMs. On the technique in general: Liver microsomes are a subcellular fraction often used to study metabolism.

The target in series [1] is T2, CYP1A2 (Homo sapiens, UniProt P05177).
T2 sequence (P05177 1-516): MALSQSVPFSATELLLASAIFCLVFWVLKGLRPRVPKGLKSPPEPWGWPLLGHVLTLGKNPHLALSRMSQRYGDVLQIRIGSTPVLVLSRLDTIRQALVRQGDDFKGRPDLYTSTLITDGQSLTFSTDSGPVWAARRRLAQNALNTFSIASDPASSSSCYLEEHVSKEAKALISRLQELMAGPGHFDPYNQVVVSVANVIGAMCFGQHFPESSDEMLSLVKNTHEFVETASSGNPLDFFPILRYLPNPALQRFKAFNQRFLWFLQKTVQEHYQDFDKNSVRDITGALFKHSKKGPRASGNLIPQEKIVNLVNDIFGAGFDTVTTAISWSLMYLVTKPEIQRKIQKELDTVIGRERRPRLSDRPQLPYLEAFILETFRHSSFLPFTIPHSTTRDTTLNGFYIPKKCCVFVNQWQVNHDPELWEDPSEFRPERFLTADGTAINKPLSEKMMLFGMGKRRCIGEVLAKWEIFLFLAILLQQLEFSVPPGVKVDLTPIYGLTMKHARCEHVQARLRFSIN
The experiment in a line: Kinetic characterization of inhibition of CYP1A2-mediated POD in human liver microsomes. Further details: tissue XenoTech XTreme 200; host or cells: pooled human liver microsomes. The following applies: HLMs; for Type of inhibition of CYP1A2-mediated POD: Lineweaver-Burk and Dixon plots. The source says: (§1) The other conditions were similar to those used in the P450 inhibition study, as described earlier.
(§2) WinNonlin software (Pharsight, Mountain View, CA, USA) was used to calculate IC50 values. Based on Lineweaver–Burk double reciprocal plots, secondary plots of Lineweaver–Burk plots versus obtusifolin concentrations, and visual inspection of Dixon plots, the type of inhibition and apparent kinetic parameters for inhibitory activity (Ki) were estimated.

A further series has as its system CYP1A1 and CYP1A2. As to the kind of experiment: CYP1A1- and CYP1A2-mediated POD and EROD with recombinant enzymes (summary). The following applies: human, summary bound. Here is the method: as §1
The inhibitory effects of obtusifolin on the CYP1A-mediated ethoxyresorufin O-deethylation (EROD) activity of rCYP1A1 and rCYP1A2 enzymes (10 pmol/mL) were investigated. […] The other conditions, except for the incubation time (20 min), were similar to those used in the P450 inhibition study, as described earlier.

The target of series [2] is T3, recombinant CYP1A2 (rCYP1A2) (Homo sapiens, UniProt P05177).
T3 construct: purchased SPMED (Busan, Republic of Korea)
T3 sequence (P05177 1-516): T2 sequence (P05177 1-516)
As to the kind of experiment: Inhibition of CYP1A2-mediated POD in recombinant CYP1A2. Particulars: rCYP1A2 10 pmol/mL.
From the text: as §1, §2

The target of another series is T4, CYP2D6 (Homo sapiens, UniProt P10635).
T4 construct: Mixtures of pooled HLM, P450 substrates, and obtusifolin; tissue XenoTech XTreme 200; host or cells: pooled human liver microsomes
As to the kind of experiment: Dextromethorphan O-demethylation in human liver microsomes. Particulars: HLMs.

Series [3] has as its target T2, CYP1A2. The experiment in a line: Time-dependent inhibition assay (IC50 shift) of CYP1A2-mediated POD in pHLMs. Also on record: tissue XenoTech XTreme 200; host or cells: pooled human liver microsomes. As for the experimental part: The IC50 shift approach was applied to assess the time-dependent inhibition of CYP1A2 by obtusifolin [18]. For 30 min, obtusifolin was pre-incubated with pHLMs in the presence of NGS. The reaction was started with 100 µM phenacetin and then incubated for 15 min. Following reaction termination and centrifugation, aliquots of the supernatants were subjected to LC-MS/MS analysis.

For another series, the target named is T5, CYP2B6 (Homo sapiens, UniProt P20813).
T5 construct: Mixtures of pooled HLM, P450 substrates, and obtusifolin; tissue XenoTech XTreme 200; host or cells: pooled human liver microsomes
T5 sequence (P20813 1-491): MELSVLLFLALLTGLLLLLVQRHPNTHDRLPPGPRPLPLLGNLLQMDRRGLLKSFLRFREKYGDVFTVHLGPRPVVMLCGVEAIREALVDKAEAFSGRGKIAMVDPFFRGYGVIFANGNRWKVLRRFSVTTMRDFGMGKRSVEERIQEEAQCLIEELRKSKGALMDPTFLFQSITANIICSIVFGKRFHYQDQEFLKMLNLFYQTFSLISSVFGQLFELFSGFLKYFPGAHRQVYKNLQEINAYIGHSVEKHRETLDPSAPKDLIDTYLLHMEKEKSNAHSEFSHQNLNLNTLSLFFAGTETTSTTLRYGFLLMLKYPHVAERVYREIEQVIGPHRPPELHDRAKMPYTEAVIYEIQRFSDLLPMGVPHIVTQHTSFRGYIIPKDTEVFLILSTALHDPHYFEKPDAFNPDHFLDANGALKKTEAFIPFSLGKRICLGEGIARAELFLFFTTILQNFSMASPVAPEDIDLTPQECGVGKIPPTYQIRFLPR
The experiment in a line: Bupropion 6-hydroxylation in human liver microsomes. Particulars: HLMs.

For the next series, the target named is T6, rCYP1A1 (Homo sapiens, UniProt P04798).
T6 construct: purchased SPMED (Busan, Republic of Korea)
T6 sequence (P04798 1-512): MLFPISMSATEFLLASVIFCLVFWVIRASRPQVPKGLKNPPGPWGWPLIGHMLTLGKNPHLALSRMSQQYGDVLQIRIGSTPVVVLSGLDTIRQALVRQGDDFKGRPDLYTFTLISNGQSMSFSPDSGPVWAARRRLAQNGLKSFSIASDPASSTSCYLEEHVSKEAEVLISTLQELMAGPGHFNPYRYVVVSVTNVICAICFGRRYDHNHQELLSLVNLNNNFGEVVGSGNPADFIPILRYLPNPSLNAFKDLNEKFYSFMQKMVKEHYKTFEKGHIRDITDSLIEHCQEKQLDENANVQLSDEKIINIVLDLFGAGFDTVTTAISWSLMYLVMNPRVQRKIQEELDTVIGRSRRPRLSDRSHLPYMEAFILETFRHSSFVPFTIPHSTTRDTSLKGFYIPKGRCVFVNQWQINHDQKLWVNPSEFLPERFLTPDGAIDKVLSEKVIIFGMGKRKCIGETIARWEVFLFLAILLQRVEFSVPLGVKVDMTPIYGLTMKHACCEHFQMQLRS
As to the kind of experiment: Recombinant CYP1A1 inhibition with 9-cis-retinal as substrate. The following applies: substrate 9-cis-retinal. The source says:
Table 5 Inhibitory effects (IC50) of obtusifolin against recombinant CYP1A1 and CYP1A2. | column: IC50 (μM)

Bounds are passed on as bounds.

T1 sequence (P11712 whole entry): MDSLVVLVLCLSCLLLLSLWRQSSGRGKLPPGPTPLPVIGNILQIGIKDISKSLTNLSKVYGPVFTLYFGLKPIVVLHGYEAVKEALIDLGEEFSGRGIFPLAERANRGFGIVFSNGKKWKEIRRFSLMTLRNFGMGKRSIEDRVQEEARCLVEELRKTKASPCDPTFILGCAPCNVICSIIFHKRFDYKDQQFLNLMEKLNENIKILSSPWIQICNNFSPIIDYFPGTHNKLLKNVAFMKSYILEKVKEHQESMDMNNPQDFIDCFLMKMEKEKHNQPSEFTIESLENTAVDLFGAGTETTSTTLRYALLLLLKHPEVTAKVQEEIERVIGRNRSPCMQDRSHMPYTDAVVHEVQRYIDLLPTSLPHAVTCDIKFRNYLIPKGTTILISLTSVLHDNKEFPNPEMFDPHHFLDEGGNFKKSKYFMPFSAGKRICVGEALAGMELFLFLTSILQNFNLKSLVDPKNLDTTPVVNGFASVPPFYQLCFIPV
T4 sequence (P10635 whole entry): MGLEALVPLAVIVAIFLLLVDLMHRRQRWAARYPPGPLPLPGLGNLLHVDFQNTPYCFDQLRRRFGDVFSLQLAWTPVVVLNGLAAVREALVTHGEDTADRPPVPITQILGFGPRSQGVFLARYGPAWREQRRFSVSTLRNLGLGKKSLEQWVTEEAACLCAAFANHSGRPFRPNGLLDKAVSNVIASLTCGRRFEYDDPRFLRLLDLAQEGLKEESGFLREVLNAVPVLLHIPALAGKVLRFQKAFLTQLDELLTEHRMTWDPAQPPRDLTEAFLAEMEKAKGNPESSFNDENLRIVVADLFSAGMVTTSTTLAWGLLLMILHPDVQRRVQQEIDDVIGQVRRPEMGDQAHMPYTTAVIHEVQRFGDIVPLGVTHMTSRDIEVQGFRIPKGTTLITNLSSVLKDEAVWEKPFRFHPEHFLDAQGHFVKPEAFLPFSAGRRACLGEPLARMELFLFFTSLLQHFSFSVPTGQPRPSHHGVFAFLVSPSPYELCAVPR
Description for CYP2B6: (§3) The following P450 isoform-specific substrates were used: coumarin (CYP2A6); bupropion (CYP2B6); amodiaquine (CYP2C8); tolbutamide (CYP2C9); omeprazole (CYP2C19); dextromethorphan (CYP2D6); chlorzoxazone (CYP2E1); and midazolam (CYP3A). […] NGS was introduced to start the reaction, which was followed by an additional incubation (15 min). Following reaction termination, aliquots of the supernatants were analyzed with LC-MS/MS.
(§4) Reverse phase column (Kinetex XB-C18, 100 × 2.10 mm; Phenomenex, Torrance, CA, USA) and triple-quadrupole mass spectrometer (LCMS 8060, Shimadzu, Kyoto, Japan) with an ultra high-performance LC system (Nexera X2, Shimadzu) analyze all the metabolites. […] For each metabolite, quantitation was carried out in selected reaction monitoring (SRM) mode using the following precursor-to-product ion transition: m/z 152 > 110 for acetaminophen (CYP1A2), m/z 214 > 186 for resorufin (CYP1A1 and CYP1A2), m/z 163 > 107 for 7-hydroxycoumarin (CYP2A6), m/z 256 > 238 for 6-hydroxybupropion (CYP2B6), m/z 328 > 283 for N-desethylamodiaquine (CYP2C8), m/z 287 > 89 for 5-hydroxytolbutamide (CYP2C9), m/z 362 > 214 for 4-hydroxyomeprazole (CYP2C9), m/z 258 > 157 for dextrorphan (CYP2D6), m/z 184 > 120 for 6-hydroxychlorzoxazone (CYP2E1), m/z 342 > 203 for 1′-hydroxymidazolam (CYP3A), and m/z 295 > 100 for trimipramine (IS) [23, 24].
Description for CYP2C9: as §3, §4
Description for CYP2D6: as §3, §4
From the text for other P450s: The inhibitory potential of obtusifolin against the biotransformation of eight P450 probe substrates was examined using previously reported methods with slight changes [21, 22]. The following P450 isoform-specific substrates were used: coumarin (CYP2A6); bupropion (CYP2B6); amodiaquine (CYP2C8); tolbutamide (CYP2C9); omeprazole (CYP2C19); dextromethorphan (CYP2D6); chlorzoxazone (CYP2E1); and midazolam (CYP3A). Mixtures of pooled HLM, P450 substrates, and obtusifolin (0, 0.05, 0.2, 0.5, 2, 5, or 10 µM for CYP1A2; and 0, 0.5, 2, 5, 20, or 50 µM for the other P450 isoforms) were pre-incubated (5 min, 37 °C). NGS was introduced to start the reaction, which was followed by an additional incubation (15 min). Following reaction termination, aliquots of the supernatants were analyzed with LC-MS/MS.

`COc1c(O)c(C)cc2c1C(=O)c1c(O)cccc1C2=O` [Obtusifolin, obtusifolin]: the IC50 with other P450s was greater than 28600 nM; against CYP2C9, 28600 nM; in the series on CYP1A1 and CYP1A2 it was less than 570 nM; in [2] (phenacetin, read-out: IC50, CYP1A2-mediated phenacetin O-deethylation), 370 ± 110 nM; on CYP2D6, greater than 50000 nM; at CYP1A2 [3] (30 min preincubation with pHLMs and NGS, phenacetin 100 µM) it was 130 nM. Also, the IC50 was greater than 50000 nM against CYP2B6 and greater than 10000 nM at rCYP1A1. The Ki on CYP1A2 [1] (phenacetin 20, 50, 100 µM, read-out: Ki, CYP1A2-mediated phenacetin O-deethylation) was 110 ± 20 nM; in [2] (read-out: Ki, CYP1A2-mediated phenacetin O-deethylation) it was 210 ± 53 nM. Also, the “Type of inhibition of CYP1A2-mediated POD” value on CYP1A2 [1] is “competitive”; on CYP1A2 [1] (listed as obtusifolin), “competitive inhibition”. Further, the “Time dependence of CYP1A2 inhibition” value on CYP1A2 [3] (IC50 shift approach) is “time-independent inhibition”. For the same compound, the IC50 shift at 15 min on CYP1A2 [3] (human, pooled human liver microsomes, probe phenacetin (100 µM), 30 min preincubation with NGS vs without, pHLMs) worked out at 1.46.
